Experimental findings from US12527862B2, “Bactericidal/permeability increasing protein for use in a method of immunization, preferably as an adjuvant in a method of vaccination” (UNIVERSITÄT REGENSBURG, priority 2018, dated 2026) are described below.

Assay [1] deals with T1, BPI (Homo sapiens, UniProt P17213).
T1 construct: aa32-487 of the huBPI respectively aa28-483 of muBPI; HA signal peptide (N); made in house; host or cells: HEK293T
T1 sequence (P17213 32-487): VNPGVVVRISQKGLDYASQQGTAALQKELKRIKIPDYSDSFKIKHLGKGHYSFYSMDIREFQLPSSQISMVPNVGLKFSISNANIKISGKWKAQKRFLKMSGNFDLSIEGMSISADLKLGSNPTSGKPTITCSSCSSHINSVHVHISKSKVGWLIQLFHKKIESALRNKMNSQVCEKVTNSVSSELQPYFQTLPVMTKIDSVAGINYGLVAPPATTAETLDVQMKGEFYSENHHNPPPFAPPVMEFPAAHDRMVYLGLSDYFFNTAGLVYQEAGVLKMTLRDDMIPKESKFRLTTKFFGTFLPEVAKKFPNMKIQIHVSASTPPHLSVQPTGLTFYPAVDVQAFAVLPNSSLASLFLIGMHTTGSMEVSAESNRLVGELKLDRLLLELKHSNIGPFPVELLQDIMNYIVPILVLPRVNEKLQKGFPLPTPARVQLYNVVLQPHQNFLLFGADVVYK
The assay can be described thus: MicroScale Thermophoresis (MST) binding of ligands to BPI. The following applies: 5 nM labeled protein, 25° C. (FIGS. 5A, 5C, 8A, 8B). How it is done:
(§1) BPIN (A) and rBPI were labeled with NT647 in PBS pH 7.4 (Monolith NT™ Protein Labeling Kit RED-NHS, NanoTemper Technologies, Munich, Germany). Concentration of labeled protein was determined using the NanoDrop (ThermoScientific, Wilmington, NC, USA) and Bradford assay (Promega, Mannheim, Germany). MST binding experiments were carried out with 5 nM labeled protein in binding buffer (10 mM HEPES pH 7.4, 150 mM NaCl, 0.1% Tween) with 0.196-6,436 nM of Pam3CSK4 (bLP), or 0.61-20,000 nM of LTA SPΔlgt (LTA), or >0.61-20,000 nM WTA SPΔlgt (WTA) at 20%-40% MST power, 20% LED power in premium capillaries on a Monolith NT.115 pico device at 25° C. (NanoTemper Technologies, Munich, Germany). Pam3CSK4, (bLP) was obtained from EMC Microcollections GmbH (Tübingen, Germany), LTA and WTA were prepared as published previously. MST timetraces were recorded, and the temperature jump and thermophoresis or thermophoresis was analyzed. Binding graphs of each independent experiment were normalized to the fraction bound.
(§2) MST was performed as described for example 5. PiLAM and PiLM were ordered from Invivogen (San Diego, CA, USA). BPI binding assays were performed by incubating Streptavidin-coated 96-well plates (Nunc™ Immobilizer™ Streptavidin F96 clear, Thermo Fisher Scientific, Waltham, MA, USA) with LPS biotin (2 μg/ml) in PBS overnight at 23° C. with gentle agitation. After washing with assay buffer (150 mM NaCl, 50 mM HEPES, Sigma Aldrich, Taufkirchen, Germany) containing 0.01% Casein, plates were blocked with 10 g/l BSA (Sigma Aldrich, Taufkirchen, Germany) at 37° C. and washed again. Thereafter, ligands were preincubated with 20 nM BPI in assay buffer containing 1 g/l BSA for 30 min and loaded onto the plates. Bound BPI was detected by murine anti-human BPI monoclonal antibody (Cat.-No. HM2042, Hycult Biotech, Uden, Netherlands) and HRP-conjugated rabbit anti-mouse IgG (Cat.-No. 315-035-048, Dianova, Hamburg, Germany). […] After addition of 1 N HCl, absorbance was measured at 450 nm. Absorbance indicates binding, the higher the absorbance the higher the binding of BPI to the coated well. […]

Assay [2] addresses BPI. Described as above. Details: species or system human. The following applies: MST, 0.196-6,436 nM Pam3CSK4 (FIG. 5A). How it is done: as §1, §2
For a further assay, the system named is BMDCs. The assay can be described thus: Cytokine protein secretion by BMDCs (Luminex). The format is cell-based, C57BL/6J mice. The note with it: Zymd 5 μg/ml, bLP 10 nM; Luminex, n>7, 4h (FIG. 3). How it is done: All methods mentioned in this example were carried out as described in the preceding examples. Cells were stimulated with Zymosan depleted (Zymd, 5 μg/ml) from Invivogen (San Diego, CA, USA) or (R)-Pam3CSK4 (bLP, 10 nM) from EMC Microcollections GmbH (Tübingen, Germany). Protein secretion analysis was performed using the supernatants.
To quantify the interleukin and chemokine protein-level after stimulation with huBPI, Zymd, and (R)-Pam CSK4, a multiplex-system was used and determined by using the Luminex® technology (Austin, TX, USA). The cytokines were captured with anti-mouse capture-antibodies and detected by biotinylated antibodies specific for the respective protein (Table 3). Protein concentrations were calculated using a reconstituted standard curve of the analyzed proteins (SM039, #LMC4031, Lot #1438354; Thermo Fisher Scientific; Standard Mix 1a, #EPX010-20603-901, Lot #111709101, eBioscience).

Assay [3] has as its target T1, BPI. Description: BPI binding assay on Streptavidin-coated plates (biotinylated LPS or ODN 1826), direct and competitive. The method, then:
FIG. 7 depicts the binding of BPI to TLR ligands. […] Competition of binding was assessed for different variants of CpG ODNs ([…]) and the TLR3 agonist Poly(I:C) in ODN 1826 coated plates.
Streptavidin-coated plates were incubated with biotinylated LPS (n=3). Competition of binding was assessed for lipoarabinomannan as exemplified for phosphatidyl-inositol lipoarabinomannan (PiLAM).
MST was performed as described for example 5. PiLAM and PiLM were ordered from Invivogen (San Diego, CA, USA). BPI binding assays were performed by incubating Streptavidin-coated 96-well plates (Nunc™ Immobilizer™ Streptavidin F96 clear, Thermo Fisher Scientific, Waltham, MA, USA) with LPS biotin (2 μg/ml) in PBS overnight at 23° C. with gentle agitation. After washing with assay buffer (150 mM NaCl, 50 mM HEPES, Sigma Aldrich, Taufkirchen, Germany) containing 0.01% Casein, plates were blocked with 10 g/l BSA (Sigma Aldrich, Taufkirchen, Germany) at 37° C. and washed again. Thereafter, ligands were preincubated with 20 nM BPI in assay buffer containing 1 g/l BSA for 30 min and loaded onto the plates. Bound BPI was detected by murine anti-human BPI monoclonal antibody (Cat.-No. HM2042, Hycult Biotech, Uden, Netherlands) and HRP-conjugated rabbit anti-mouse IgG (Cat.-No. 315-035-048, Dianova, Hamburg, Germany). TMB (BD OptEIA™ TMB Substrate Reagent Set, BD Biosciences, Heidelberg, Germany) was used as a substrate for peroxidase. After addition of 1 N HCl, absorbance was measured at 450 nm. Absorbance indicates binding, the higher the absorbance the higher the binding of BPI to the coated well. Preincubation with a BPI ligand inhibits binding in a concentration-dependent manner.

In assay [4] the test system is bone-marrow derived dendritic cells. The assay can be described thus: Microarray gene expression analysis in BMDCs. Format: cell-based, C57BL/6J mice. The following applies: 200 nM huBPI or muBPI, 4 h, microarray (FIG. 2A). The method, then:
All methods mentioned in this example were carried out as described in Example 1. BMDCs were seeded into a tissue-culture-treated 96-well plate in VLE-RPMI 1640 media (10% FCS, 10% Penicillin-Streptomycin, 50 μM β-Mercaptoethanol) and stimulated with 200 nM huBPI or muBPI. 4 h after stimulation, gene expression analysis was performed by microarray analysis (Affymetrix Mouse Gene 2.0 ST, FIGS. 2A and 2B).

For (R)-Pam3CSK4 [bLP], the “binding to BPI (MST)” value at BPI [1] is “shown to bind to bLPs”. For the same molecule, the “Affinity of BPI to bLP” value at BPI [2] is “within a nanomolar range”. The “stimulatory effect on the expression of IL-6 (IL-6 level), BPI vs Zymd vs bLP” value in the assay with BMDCs was “similar”.
Consider ODN 1826, for which the “binding of BPI to plate-bound biotinylated ligand” value on BPI [3] (Streptavidin-coated plates, absorbance 450 nm, n=4 (FIG. 7A)) was “Binding of BPI to both LPS and CpG ODN was observed”.
As for “phosphatidyl-inositol lipoarabinomannan [PiLAM]”, at BPI [3] (LPS biotin 2 μg/ml, 20 nM BPI, n=3 (FIG. 8C)), the “competition of BPI binding in biotinylated LPS coated plates” value is reported as “binding is conserved”.
Turning to phosphatidyl-inositol lipomannan [PiLM], on BPI [1], the “binding to BPI (MST)” value is given as “Binding of phosphatidyl-inositol lipomannan (PiLM) to BPI is shown”.
Consider “polyinosinic: polycytidylic acid [Poly(I:C)]”, for which the “competition of BPI binding in ODN 1826 coated plates” value at BPI [3] (biotinylated ODN 1826, n=3 (FIG. 7B)) was “competitive binding was present”.

B1: murine BPI: recombinant murine BPI, aa28-483 of muBPI, expressed in HEK293T cells (protein, listed as Mus musculus)
chain: TDPGFVAMISQKGLDFACQQGVVELQKELQAISVPDFSGVFKIKHLGKGSYEFYSMAVDGFHIPNPKIEMLPSDGLRVFIKDASIKINGKWMSRKNFLKAGGNFELSIQGVSISTDLILGSDSSGHITTICSNCDSHIDSVHIKISGSMLGWLIRLFHRKIETSLKNIIYKKICKIVRDSVSSKLQPYLKTLSVITRVDDVTSVDYSLLAPLTTTNQFLEGQLKGEFFWRGHRDPLPIHPPVMRFVPNGAYMVCMGISDYFFNTEVLAYQQSGTLKMTLGGQLLSNNGRFQLNTDFLRTFLPKVAKMFPSMGVQLLISAPVPVHLSIQPSGLSFNPKLETQAFVVLPNASLVPLFVLGMKTNASLEVDAEENRLVGEMKLGSRWLLELKESKFGPFKVEYLEDVINYLVSTLVLPKINERLRRGFPLPLPAGIRFSHFTFYPYQNFLLLEADLHLI
Consider B1, for which the “immunostimulatory effect on BMDCs (gene expression)” value in assay [4] was “shows an immunostimulatory effect on BMDCs”.
